The values below come from patent US20020114804A1, “A METHOD OF TREATING INFECTION OF SUTURES AND PROSTHETIC DEVICES” (priority 1996, published 2002).

Holding throughout (assay type): cell-based, human
Experiment [1] concerns PMNs. As to the kind of experiment: PMN migration through fibrin gels in Boyden-type chemotaxis chambers. Here is the method: (§1) Becton-Dickinson cell culture inserts (pore sizes 3 or 8 μm: Franklin Lakes, N.J.) were overlaid with the following proteins:
Fibrin gels: 1 Unit of thrombin (a gift from Dr. John Fenton, Albany Medical College, Albany, N.Y.), in 5 μl of PBS was added first to each insert. 0.1 ml phosphate buffered saline supplemented with Ca^2+ and Mg^2+ (PBS) containing 100 μg commercial grade fibrinogen (Calbiochem. Inc., San Diego, Calif.) or purified fibrinogen [a gift from Dr. Jeffery Weitz, (MacMaster University, Hamilton, On.)] was then placed into each 8.2 mm diameter insert on top of the thrombin. The mixture was incubated at 37° C. for 5 min to allow fibrin gel formation (determined by visual inspection). 1 Unit PPACK (Calbiochem Inc., San Diego, Calif.; 10^−5 M final concentration), in 100 μl medium was added to each insert to inhibit thrombin, and gels were washed with 250 μl PBS to remove inactivated thrombin. The fibrin gels formed were about 1 mm thick as measured under a dissecting microscope.
(§2) PMNs were prepared from fresh heparinized blood from healthy adult volunteers by sedimentation on Ficoll-Hypaque gradients. Contaminating red blood cells were removed by hypotonic lysis, as described (7). The purity of PMN isolated by this method is >95% as determined by Wright-Giemsa staining (7). 10^6 PMNs in 250 μl of PBS supplemented with 5.5 mM glucose and 0.1% human serum albumin (PBSG-HSA), were placed in the upper compartment of each insert and incubated for 0-6 hrs at 37° C. in a humidified atmosphere containing 95% air/5% CO2. At the times and concentrations specified, chemoattractants/cytokines were added to the top or bottom compartment in 250 μl of PBSG-HSA. At the end of the incubation, the chambers were shaken to dislodge PMNs from the lower surface of the inserts. The medium in each lower compartment was collected and its content of PMNs was determined using either a Coulter Counter or a hemocytometer. Both methods gave similar results. Counts are expressed as the average number of PMNs that migrated into the lower compartment. Unless otherwise indicated, all values reported are the average of six data points from at least 3 independent experiments.

Experiment [2] has as its system PMNs. As to the kind of experiment: PMN migration through Matrigel or Matrigel/tenascin coated filters. Particulars: for Inhibition of chemoattractant-stimulated PMN migration: Matrigel-coated filters, depending on chemoattractant, human tenascin 5 μg. On the procedure: Polymorphonuclear leukocytes (PMN), were prepared as described (7) from heparinized human blood by sedimentation on Ficoll-Hypaque gradients. Contaminating red blood cells were removed by hypotonic lysis. The purity of PMN isolated by this method was >95% as determined by Wright-Giemsa staining.
(§3) Cell culture inserts containing polyethylene terephthalate filters, 8-μm pore size (Becton-Dickinson), were overlaid with 0.1 ml of Matrigel (20-25 μg protein/filter) (Collaborative Research, Bedford, Mass.), and incubated at room temperature until they dried. These Matrigel-coated filters were washed with phosphate buffered saline containing 1.0 mM Mg^2+ and 1.0 mM Ca^2+ (PBS). 0.1 ml of a PBS solution (pH 7.2) containing the indicated amount of purified chick brain tenascin was added to some of the inserts. The filters were incubated at room temperature until they dried. These protein-coated filters were washed again with PBS and used within 12 h for cell migration studies. To prepare collagen I-coated inserts, filters were coated with rat tail collagen I (ICN Biochemicals, Costa, Mesa, Calif.) (400 μg/ml in PBS), by adding 0.1 ml of this solution to an insert and incubating the inserts at room temperature for 24 h. Some of these collagen I-coated filters were then incubated with tenascin as described above.
PMN: 250 μl of PBS [supplemented with 5.5 mM glucose and 0.1% human serum albumin (HSA) (PBSG-HSA)] containing 1×10^6 PMNs was placed in the upper compartment of each insert. 250 μl of PBSG-HSA with or without chemoattractant, as indicated, was added to the bottom compartment. The inserts were incubated for about 4 h at 37° C. in a humidified atmosphere containing 95% air/5% CO2. […] The medium in the lower compartment was collected and its content of PMN determined using a Coulter Counter, as described in Example 1.

Experiment [3] deals with PMNs. As to the kind of experiment: Exclusion of rhodamine-labeled polyethylene glycol (Rh-PEG) from zones of adhesion of PMNs. The conditions noted are these: fMLP in combination with IL-8 or LTB4, fibrin. On the procedure:
Rh-PEG binds avidly to protein-coated surfaces, and can be detected easily by its fluorescence. Individual wells on glass microslides (Carlson Scientific, Peotone, Ill.) were coated with either fibrin, Matrigel or collagen IV in a manner similar to that for coating cell culture inserts except that 20 μl of the various solutions were used per well. 20 μl of PMNs (10^6 cells/ml in PBSG-HSA) were added to each well and PMNs were allowed to adhere for 15 mins at 37°. The cells were washed in PBS, fixed with 3.7% paraformaldehyde in PBS for 10 min, washed again with PBS, and further incubated with 10 kDa Rh-PEG at room temperature for 60 min. The preparation then was washed with PBS and immediately observed by phase and fluorescent microscopy at 400× magnification. Average values from three different experiments are reported as the percentage of PMNs that excluded Rh-PEG from zones of adherence between the cells and the underlying matrix.

Experiment [4] concerns PMNs. As to the kind of experiment: PMN migration through gels of Matrigel or collagen IV. The conditions noted are these: added to the bottom chamber. On the procedure:
as §1
Collagen type IV and Matrigel matrices: 0.1 ml PBS containing 100 μg human placental collagen IV (Fluka Chemical Corp., Ronkonkoma, N.Y.), or 80 μg of reconstituted basement membrane proteins (Matrigel, Collaborative Research, Bedford, Mass.), was placed into each insert and allowed to gel at room temperature for 24 hrs.
as §2, with “At the end of the incubation, the chambers were shaken to dislodge PMNs from the lower surface of the inserts.” left out, “Both methods gave similar results.” left out, “Unless otherwise indicated, all values reported are the average of six data points from at least 3 independent experiments.” left out

For experiment [5], the system named is monocytes. As to the kind of experiment: Monocyte migration through Matrigel or Matrigel/tenascin coated filters. The conditions noted are these: for Inhibition of chemoattractant-stimulated monocyte migration: Matrigel-coated filters, depending on chemoattractant, human tenascin 5 μg.
Description: Mononuclear cells were isolated by centrifugation of heparinized human blood on Ficoll-Hypaque gradients as described (65, 66). The mononuclear cell fraction was resuspended in RMPI 1640 medium supplemented with 10% pooled human serum or autologous serum and used immediately for monocyte migration studies. For some experiments, monocytes were obtained by centrifugation of whole blood or of white blood cells concentrated from a unit of blood (leukopak), on Nycodenz gradients as described (39). More than 90% of the nucleated cells obtained by this Nycodenz method were monocytes, as assessed by their ability to phagocytose IgG-coated red blood cells.
(§4) Cultured monocytes were prepared by allowing 10^7 total mononuclear cells, suspended in 10 ml of RMPI 1640 medium supplemented with 10% pooled human serum (1640+HS), or 10% autologous serum (1640+AS), to adhere to Falcon T-150 tissue culture Petri dishes for 2 h at 37° C. Non-adherent cells were removed by washing, leaving an adherent cell population consisting of greater than 98% monocytes as measured by their capacity to phagocytose IgG coated sheep red blood cells. For migration studies, monocytes were maintained in culture for 24 h in RPMI 1640+HS or AS, and detached from the dishes by gentle pipetting of 10 ml of ice cold phosphate buffered saline (without Ca^2+ or Mg^2+) containing 1.0 mM EDTA. The cells recovered were resuspended in RPMI-1640+HS as described (65).
as §3
Monocytes: Cell culture inserts were placed in 16 mm wells containing 0.5 mls of RPMI-1640+HS or AS in the presence or absence of a chemoattractant. 0.5 ml of RPMI-1640+HS or AS serum containing between 2-10×10^5 mononuclear phagocytes was added to the upper chamber of the inserts and the inserts were placed in a humidified CO2 incubator at 37° C. After 24 h the medium in the lower chamber was recovered and its cell content assayed using either a Coulter counter or a hemocytometer. […] Cell counts reported are the average number of cells recovered from the medium in the lower compartment of chemotaxis chambers. Over 90% of the cells in the lower chamber were identified as monocytes based on their morphology, their capacity to phagocytose IgG coated sheep red cells, and their staining with fluorescein-conjugated anti α,β monoclonal antibody (Oncogene Sciences, Uniondale, N.Y.). Unless otherwise indicated, all values are the average of duplicate samples run in parallel in a representative experiment. Each experiment was repeated at least three times with similar results.

In experiment [6] the test system is PMNs. As to the kind of experiment: PMN migration through filters coated with fibrinogen or fibronectin. Here is the method:
as §1
Fibrinogen or fibronectin: 0.1 ml of PBS containing 100 μg/ml fibrinogen or fibronectin (New York Blood Center, New York, N.Y.), was placed into each insert (pore size 3 μm). Inserts were incubated at 37° C. for 60 min and washed with 250 μl of PBS. Filters coated with fibrinogen or fibronectin were diffusely fluorescent as visualized by epifluorescent microscopy when incubated with the corresponding antibody [fluorescein-labeled anti-fibrinogen, or anti-fibronectin monoclonal antibodies (Cappel, Malvern, Pa.)], while uncoated filters, or filters incubated with fluorescein-labeled antibody of the opposite specificity, were not.
PMNs were prepared from fresh heparinized blood from healthy adult volunteers by sedimentation on Ficoll-Hypaque gradients. Contaminating red blood cells were removed by hypotonic lysis, as described (7). The purity of PMN isolated by this method is >95% as determined by Wright-Giemsa staining (7). […] The medium in each lower compartment was collected and its content of PMNs was determined using either a Coulter Counter or a hemocytometer. […] Counts are expressed as the average number of PMNs that migrated into the lower compartment. […]

Experiment [7] relates to monocytes. As to the kind of experiment: Monocyte migration through collagen I coated inserts. Particulars: tenascin added to collagen I. Here is the method:
as §4
Cell culture inserts containing polyethylene terephthalate filters, 8-μm pore size (Becton-Dickinson), were overlaid with 0.1 ml of Matrigel (20-25 μg protein/filter) (Collaborative Research, Bedford, Mass.), and incubated at room temperature until they dried. These Matrigel-coated filters were washed with phosphate buffered saline containing 1.0 mM Mg^2+ and 1.0 mM Ca^2+ (PBS). 0.1 ml of a PBS solution (pH 7.2) containing the indicated amount of purified chick brain tenascin was added to some of the inserts. The filters were incubated at room temperature until they dried. […]

The test system of another experiment is PMN or monocytes. As to the kind of experiment: Adhesion of PMN or monocytes to tenascin-impregnated Matrigel.
In experiment [8] the test system is PMNs. As to the kind of experiment: PMN migration through fibrin gels with anti-integrin antibodies or synthetic peptides. Particulars: PMNs incubated with antibody (2 μg/ml) or peptide (1 mg/ml); fMLP 10^−7M, 6 hrs. On the procedure: Fibrin gels were formed on filters of cell culture inserts as described in Experimental Peocedures and fMLP (10^−7M) or LTB4 (10^−7M) was added to the medium in the lower chamber. FIG. 10A—10^6 PMNs were pre-incubated in medium containing antibodies against rat or human β1 integrins, or antibodies against the α5 subunit of human α5β1 integrin, or against the human β2 integrin complement receptor 3 (CR3), or against the human β2 integrin p150/95, or against human β3 integrins for 15 min at 4° C. PMNs were placed in the upper chamber of cell culture inserts in the same medium and the inserts were incubated for 6 hrs at 37° C., at which time the number of cells in the lower chamber was determined using a Coulter Counter. […] The mixture was added to the upper chamber of cell culture inserts and the inserts were incubated for 6 hrs at 37° C., at which time the number of cells in the lower chamber was counted as in FIG. 10A.
Fibrin gels: 1 Unit of thrombin (a gift from Dr. John Fenton, Albany Medical College, Albany, N.Y.), in 5 μl of PBS was added first to each insert. […] The mixture was incubated at 37° C. for 5 min to allow fibrin gel formation (determined by visual inspection). […] The fibrin gels formed were about 1 mm thick as measured under a dissecting microscope. […]

Where [9] appears, read: added in combination in bottom compartment, 6 hr.

For `CSCC[C@H](NC=O)C(=O)N[C@@H](CC(C)C)C(=O)N[C@@H](Cc1ccccc1)C(=O)O` [fMLP, formyl-methionyl-leucyl-phenylalanine], the “Effect of serum on PMN migration through fibrin gels in response to the chemoattractant” value in the experiment on PMNs [1] (20% human serum in upper and lower compartments) is given as “nor did the presence of serum promote”. Moreover, in the experiment with PMNs [1] (setting [9]), the “Effect on PMN migration through fibrin gels in response to IL-8” value was “reduced” and the “Effect on PMN migration through fibrin gels in response to LTB4” value is “reduced”. Moreover, the “PMN migration through fibrin gels (in words)” value with PMNs [1] (chemoattractant in lower compartment, zymosan-activated human plasma 2-10%) was “not”. The “PMNs that migrated through Matrigel-coated inserts” value in the experiment on PMNs [2] (Matrigel alone) is recorded as roughly 10%. The “PMNs forming zones of adhesion that excluded 10 kDa Rh-PEG” value in the experiment with PMNs [3] is given as “about 50%”. Moreover, in the experiment with PMNs [4], the “PMN migration through gels of Matrigel or collagen IV” value was “stimulated PMN migration”. In addition, in the experiment on monocytes [5] (Matrigel alone), the “Cultured monocytes that migrated through Matrigel-coated inserts” value was roughly 15% and the “Freshly isolated human monocytes that migrated through Matrigel-coated inserts” value is “About 20%”. Further, the “PMN migration through filters with adsorbed fibrinogen or fibronectin” value with PMNs [6] is “promoted PMN migration”.
“chick brain tenascin: tenascin purified from 14-day embryonic chick brains”: in the experiment on monocytes [7], the “Reduction of TNF- or LTB4-stimulated monocyte migration through collagen I coated inserts” value was “at least 60%”. Moreover, in the experiment with PMNs [2], the “Inhibition of chemoattractant-stimulated PMN migration” value is listed as 65-80%. In addition, in the experiment with PMNs [2] (tenascin added to Matrigel), the “Effect on PMN migration through Matrigel in response to TNF, fMLP or LTB4” value is “significantly reduced” and the “Effect on PMN that migrated across Matrigel in the absence of chemoattractant” value is listed as “further reduced”. Also, the “Inhibition of chemoattractant-stimulated monocyte migration” value with monocytes [5] was 65-80%. In addition, the “Amount causing half maximal inhibition of TNF-stimulated monocyte migration” value in the experiment with monocytes [5] (amount added to Matrigel-coated insert, cultured monocytes, 24 h) is recorded as “about 0.75 μg”. Besides, in the experiment with monocytes [5] (tenascin added to Matrigel), the “Effect on monocyte migration through Matrigel in response to TNF, fMLP or LTB4” value is on record as “significantly reduced” and the “Effect on monocytes that migrated in the absence of chemoattractant” value is “no significant effect”. In addition, in the experiment with PMN or monocytes, the “Number of chemoattractant-stimulated PMN or monocytes adhered to tenascin-impregnated Matrigel over Matrigel alone” value is recorded as “no increase”.
In the case of GRGDSP, in the experiment with PMNs [8], the “PMN migration through fibrin gels in response to fMLP” value was “migrated through fibrin gels”.
For “human tenascin: tenascin obtained from cultured human glioma cells, from GIBCO-BRL”, the “Inhibition of chemoattractant-stimulated PMN migration” value in the experiment with PMNs [2] was “at least 50%”. Moreover, the “Inhibition of chemoattractant-stimulated monocyte migration” value in the experiment with monocytes [5] is “at least 50%”.
